The values below come from US4322348A, “Maytansinoids” (Takeda Chemical Industries, Ltd., priority 1979, dated 1982).

One series can be described thus: solubility. It counts as physicochemical.
In the next series the test system is Klebsiella pneumoniae. In words: growth inhibition, paper disc method, trypticase soy agar. Format: cell-based. Particulars: 8 mm disc, 0.02 ml of a 300 μg/ml solution. The procedure: (§1) The growth inhibitory activity of the compounds against the test organisms is assayed by the paper disc method using a trypticase soy agar (manufactured by Baltimore Biologicals Laboratories, U.S.A.) as the assay medium. That is, the growth inhibitory activity is determined on the plate medium containing the following test organisms using a paper disc (manufactured by Toyo Seisakusho Co. Ltd., thin type, 8 mm in diameter) impregnated with 0.02 ml of a 300 μg/ml solution of C-15003PND-1, PND-2, PND-3 or PND-4.

The test system of a further series is Serratia marcescens. The series is described as above. Format: cell-based. Conditions: 8 mm disc, 0.02 ml of a 300 μg/ml solution. The procedure:
as §1

A further series concerns Proteus vulgaris. Described as above. Format: cell-based. Particulars: 8 mm disc, 0.02 ml of a 300 μg/ml solution. The procedure: as §1
The test system of a further series is Pseudomonas aeruginosa. Described as above. Format: cell-based. Particulars: 8 mm disc, 0.02 ml of a 300 μg/ml solution. The procedure: as §1
Another series relates to Mycobacterium avium. The series is described as above. Format: cell-based. Conditions: 8 mm disc, 0.02 ml of a 300 μg/ml solution. The procedure:
as §1

The next series deals with Proteus mirabilis. The series is described as above. It counts as cell-based. Particulars: 8 mm disc, 0.02 ml of a 300 μg/ml solution. The procedure: as §1
For a further series, the system named is Bacillus subtillis. Described as above. It counts as cell-based. Conditions: 8 mm disc, 0.02 ml of a 300 μg/ml solution. The procedure: as §1
The test system of another series is Escherichia coli. The description is as above. It counts as cell-based. Conditions: 8 mm disc, 0.02 ml of a 300 μg/ml solution. The procedure: as §1
A further series relates to Staphylococcus aureus. The series is described as above. Conditions: 8 mm disc, 0.02 ml of a 300 μg/ml solution. Format: cell-based. How it is done:
as §1

A further series deals with Bacillus cereus. The description is as above. It counts as cell-based. Particulars: 8 mm disc, 0.02 ml of a 300 μg/ml solution. The procedure: as §1
Series [1] has as its system tumor cells leukemia P388. Put plainly: antitumor activity, therapeutic effect on leukemia P388 in mice. It counts as in vivo. Particulars: 1×10^6 cells/mouse i.p.; compound i.p. for 9 consecutive days. The procedure:
The therapeutic effects of C-15003PND-1, PND-2, PND-3 and PND-4 on tumor cells leukemia P388 (1×10^6 cells/mouse, transplanted intraperitoneally) are determined by administering the compound intraperitoneally for 9 consecutive days.

Series [2] can be described thus: acute toxicity test in mice. Format: in vivo. Conditions: intraperitoneal.
The subject of series [3] is Hamigera avellanea IFO 7721. In words: growth inhibition, paper disc method, agar plate. Format: cell-based. Conditions: IFO7721, 8 mm disc, 0.02 ml of a 100 μg/ml solution, pH 7.0, read-out: inhibitory zones. How it is done: Also, the compounds are assayed by the paper disc method using an agar plate [3.5 g of disodiumhydrogen phosphate, 0.5 g of potassium dihydrogen phosphate, 5 g of yeast extract (manufactured by Difco Co.), 10 g of glucose, 15 g of agar, 1000 ml of distilled water, pH 7.0] as a medium for assay and Hamigera avellanea IFO 7721 as a test organism. Thus, the growth inhibitory activity is determined on the plate medium containing the test organism using a paper disc (Toyo Seisakusho Co. Japan, thin type, 8 mm in diameter) impregnated with 0.02 ml of a 100 μg/ml solution of C-15003PND-1, PND-2, PND-3 or PND-4. As a result, C-15003PND-1, PND-2, PND-3 and PND-4 show inhibitory zones of 28 mm, 30 mm, 34 mm and 36 mm, respectively.

The subject of another series is Tetrahymena pyriformis W. In words: growth inhibition, liquid dilution method. Format: cell-based. Particulars: 28° C., 44 to 48 hours, pH 7.0, read-out: concentration at which the growth of the test organism is inhibited. How it is done: Further, the growth inhibitory activity of these antibiotics is determined by the liquid dilution method using a medium [20 g of proteose peptone (Difco Co.), 1 g of yeast extract, 2 g of glucose, 1000 ml of distilled water, 10 ml of 1 M phosphate buffer pH 7.0] and Tetrahymena pyriformis W as a test organism with incubation at 28° C. for 44 to 48 hours. As a result, the growth of the above test organism is found to be inhibited at a concentration of 8 μg/ml of C-15003PND-1, 4 μg/ml of C-15003PND-2, 2 μg/ml of C-15003PND-3 and 1 μg/ml of C-15003PND-4.

The mark [4] stands for this setting: in petroleum ether, n-hexane, water.
Where [5] appears, read: in chloroform, ethyl acetate, acetone, ethanol, methanol, pyridine, tetrahydrofuran, dimethyl sulfoxide.

Each structure is given as a SMILES string. In brackets after ≈: the same amount, converted by molar mass.

For the compound `COc1cc2cc(c1Cl)NC(=O)CC(O)C1(C)OC1C(C)C1CC(O)(NC(=O)O1)C(OC)C=CC=C(C)C2` (stereo not shown) [C-15003PND-0], the Solubility result is recorded as “Soluble” in “solubility” (in chloroform, ethyl acetate, acetone, ethanol, pyridine, tetrahydrofuran, dimethyl sulfoxide) and “Insoluble” in the series “solubility” (setting [4]).

Turning to `COc1cc2cc(c1Cl)NC(=O)CC(OC(C)=O)C1(C)OC1C(C)C1CC(O)(NC(=O)O1)C(OC)C=CC=C(C)C2` (stereo not shown) [C-15003PND-1], the growth inhibitory activity result in the series on Klebsiella pneumoniae, in the series on Serratia marcescens, in the series with Proteus vulgaris, with Pseudomonas aeruginosa, in the series on Mycobacterium avium and in the series on Proteus mirabilis was “do not show any activity” each time. Also, the growth inhibitory activity entry in the series on Bacillus subtillis, in the series on Escherichia coli, in the series on Staphylococcus aureus and in the series on Bacillus cereus was “do not show any activity” throughout. The life-prolonging effect result in series [1] is on record as “a life-prolonging effect”. The “estimated LD0” value in series [2] was 0.313 mg/kg. In series [2], the “estimated LD100” value is given as 2.5 mg/kg. In [3], the zone of inhibition at 100 µg/mL amounted to 28 mm. Besides, in the series with Tetrahymena pyriformis W, the MIC is 8 µg/mL (≈ 13.5 µM). Also, the Solubility entry is reported as “Soluble” in “solubility” (setting [5]) and “Insoluble” in “solubility” (setting [4]).

For the compound `CCC(=O)OC1CC(=O)Nc2cc(cc(OC)c2Cl)CC(C)=CC=CC(OC)C2(O)CC(OC(=O)N2)C(C)C2OC12C` (stereo not shown) [C-15003PND-2], the growth inhibitory activity entry in the series on Klebsiella pneumoniae, in the series on Serratia marcescens, in the series on Proteus vulgaris, in the series on Pseudomonas aeruginosa, in the series with Mycobacterium avium and with Proteus mirabilis was “do not show any activity” in each case. In addition, the growth inhibitory activity result in the series on Bacillus subtillis, in the series on Escherichia coli, in the series on Staphylococcus aureus and in the series with Bacillus cereus was “do not show any activity” throughout. Besides, in series [1], the life-prolonging effect entry is recorded as “a life-prolonging effect”. Further, the “estimated LD0” value in series [2] is listed as 0.313 mg/kg. In addition, in series [2], the “estimated LD100” value was 2.5 mg/kg. Further, the zone of inhibition at 100 µg/mL in series [3] was found to be 30 mm. Moreover, in the series with Tetrahymena pyriformis W, the MIC was 4 µg/mL (≈ 6.59 µM). Moreover, the Solubility entry in the series “solubility” (setting [5]) is “Soluble”; in “solubility” (setting [4]), “Insoluble”.

Turning to `COc1cc2cc(c1Cl)NC(=O)CC(OC(=O)C(C)C)C1(C)OC1C(C)C1CC(O)(NC(=O)O1)C(OC)C=CC=C(C)C2` (stereo not shown) [C-15003PND-3], the growth inhibitory activity result in the series with Klebsiella pneumoniae, in the series with Serratia marcescens, in the series on Proteus vulgaris, in the series on Pseudomonas aeruginosa, in the series with Mycobacterium avium and with Proteus mirabilis was “do not show any activity” throughout. The growth inhibitory activity entry with Bacillus subtillis, with Escherichia coli, with Staphylococcus aureus and in the series with Bacillus cereus was “do not show any activity” throughout. For the same compound, the life-prolonging effect entry in series [1] is given as “a life-prolonging effect”. Moreover, the “estimated LD0” value in series [2] is listed as 0.313 mg/kg. The “estimated LD100” value in series [2] is given as 2.5 mg/kg. Besides, in series [3], the zone of inhibition at 100 µg/mL stood at 34 mm. In addition, the MIC with Tetrahymena pyriformis W came to 2 µg/mL (≈ 3.22 µM). Besides, the Solubility result in the series “solubility” (setting [5]) is “Soluble”; in “solubility” (setting [4]), “Insoluble”.

For `COc1cc2cc(c1Cl)NC(=O)CC(OC(=O)CC(C)C)C1(C)OC1C(C)C1CC(O)(NC(=O)O1)C(OC)C=CC=C(C)C2` (stereo not shown) [C-15003PND-4], the growth inhibitory activity result in the series on Klebsiella pneumoniae, in the series with Serratia marcescens, in the series on Proteus vulgaris, in the series on Pseudomonas aeruginosa, in the series with Mycobacterium avium and with Proteus mirabilis was “do not show any activity” throughout. Besides, the growth inhibitory activity entry with Bacillus subtillis, with Escherichia coli, in the series on Staphylococcus aureus and in the series with Bacillus cereus was “do not show any activity” each time. Further, in [1], the life-prolonging effect entry is “a life-prolonging effect”. The “estimated LD0” value in [2] is 0.313 mg/kg. Moreover, the “estimated LD100” value in series [2] is 2.5 mg/kg. The zone of inhibition at 100 µg/mL in series [3] was determined as 36 mm. Also, the MIC with Tetrahymena pyriformis W came out at 1 µg/mL (≈ 1.57 µM). Also, the Solubility entry is listed as “Soluble” in the series “solubility” (setting [5]) and “Insoluble” in the series “solubility” (setting [4]).
